Target: T1, His^B10 anion site of the R6 hexameric aspart (Homo sapiens, UniProt P01308, P52D)
T1 construct: The A-chain is a 21 amino acid peptide and the B-chain is a 30 amino acid peptide
Test: 600 MHz proton NMR of aspart/liraglutide mixtures (R6 hexamer signal of Cys A6 alpha proton at 5.6 ppm)
Format: binding
Settings: for stabilization of the aspart R6 conformation (NMR resonances between 5 and 6 ppm): ligand at 3 mM added to the aspart/liraglutide mixtures of FIG. 13, FIG. 14, 15
Protocol: Insulin Aspart (B28 Asp human insulin) and liraglutide mixtures were prepared with constant aspart concentration (0.6 mM) and increasing concentration of liraglutide (going from 0 to 2.4 mM). Mixtures are formulated at pH 7.5, 1.6% w/v d-glycerol, 0.3 mM Zn(Ac)2, 30 mM d-phenol (deuterated phenol in order to avoid any proton NMR signal). […] This region of the proton NMR signal only included signals from aspart, no signals from liraglutide were present.
Ligands for the His^B10 anion site of the R6 hexameric aspart entity will stabilize this R6 conformation. Two such ligands were tested under the same conditions as was used in the experiment depicted in FIG. 13 with the addition of ligands at 3 mM concentration.

T1 sequence (P01308 25-54 P52D): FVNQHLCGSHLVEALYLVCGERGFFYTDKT
T1 sequence (P01308 90-110): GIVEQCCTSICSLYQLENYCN

SMILES	stabilization of the aspart R6 conformation (NMR resonances between 5 and 6 ppm)	tightness of binding to the Zn-binding pocket of aspart, compared (ligand at 3 mM, FIG. 15 against FIG. 14)
O=C1NC(=O)/C(=C/c2cccc3ccccc23)S1 [5-Naphthalen-1-ylmethylenethiazolidine-2,4-dione]	invariant aspart resonances under increasing liraglutide concentration	binds even tighter than the 5-Benzyl-2H-tetrazole
c1ccc(Cc2nn[nH]n2)cc1 [5-Benzyl-2H-tetrazole]	stabilized the R6 conformation	–
